Values quoted from earlier work, collected in PMC10197133, “Synthesis, Computational Insights, and Evaluation of Novel Sigma Receptors Ligands” (ACS Chemical Neuroscience, 2023).

Biological target: S1R (Rattus norvegicus, UniProt Q9R0C9)
Settings: statement in the introduction; cited from earlier work

S1R, sequence (Q9R0C9 whole entry): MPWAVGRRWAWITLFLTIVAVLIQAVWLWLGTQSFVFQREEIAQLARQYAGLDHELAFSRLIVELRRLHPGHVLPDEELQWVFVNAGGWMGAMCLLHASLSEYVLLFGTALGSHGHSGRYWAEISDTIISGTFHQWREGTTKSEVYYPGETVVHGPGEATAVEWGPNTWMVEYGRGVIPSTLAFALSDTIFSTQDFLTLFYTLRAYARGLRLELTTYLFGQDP

CCCN1CCC(c2cccc(S(C)(=O)=O)c2)CC1 [Pridopidine]
fold greater affinity for S1R than for D2: 100 fold
